Experimental data as given in paper PMC8480901 (PLoS ONE, 2021).
Several values for one entry are separate records, joined by “and”; a condition that tells them apart may be missing. Identical values can stand only once.

System: J774.2 mouse macrophages
Assay: LPS-induced cytokine and chemokine levels in J774.2 mouse macrophage cell supernatant (ELISA)
Assay type: cell-based
Settings: LPS; for TNF-α / CCl2, % reduction / CCl2, Mean / GM-CSF % reduction / GM-CSF Mean / IL-1β % reduction / IL-1β Mean / IL-6 % reduction / IL-6 Mean / TNF-α % reduction / TNF-α Mean / CCl2 / CXCL1 / GM-CSF / IL-1β / IL-6: J774.2 supernatant; for TNF-α / CCl2 / CXCL1 / GM-CSF / IL-1β / IL-6 / CXCL2 / MMP9: individual replicate; for CXCL2 / MMP9: J774.2 cells

With C=C[C@]1(C)C[C@@H](OC(=O)CS[C@@H]2CC[C@@H](N)C[C@H]2O)[C@]2(C)[C@H](C)CC[C@]3(CCC(=O)[C@H]32)[C@@H](C)[C@@H]1O [Lefamulin] the TNF-α (0.3 µM) was 1489.0 pg/mL and 1477.5 pg/mL, the CCl2, % reduction (1 µM) was -9% and the “CCl2, Mean” value (1 µM) was 39289 pg/mL. The GM-CSF % reduction (1 µM) was 60%, the “GM-CSF Mean” value (1 µM) was 564 pg/mL and the IL-1β % reduction (1 µM) was -12%. The “IL-1β Mean” value (1 µM) was 213 pg/mL, the IL-6 % reduction (1 µM) was 0.856% and the “IL-6 Mean” value (1 µM) was 76721 pg/mL. The TNF-α % reduction (1 µM) was -11%, the “TNF-α Mean” value (1 µM) was 1515 pg/mL and the CCl2 (1 µM) was 38237.3 pg/mL and 40341.1 pg/mL. For the same molecule, the CXCL1 (1 µM) was 25.5 pg/mL and 26.1 pg/mL, the GM-CSF (1 µM) was 597.3 pg/mL and 530.6 pg/mL and the IL-1β (1 µM) was 223.29 pg/mL and 203.668 pg/mL. For the same molecule, the IL-6 (1 µM) was 75165 pg/mL and 78277 pg/mL, the TNF-α (1 µM) was 1503.6 pg/mL and 1525.6 pg/mL and the CCl2, % reduction (3 µM) was -16%. The “CCl2, Mean” value (3 µM) was 41389 pg/mL, the GM-CSF % reduction (3 µM) was 51% and the “GM-CSF Mean” value (3 µM) was 681 pg/mL. For the same molecule, the IL-1β % reduction (3 µM) was 12%, the “IL-1β Mean” value (3 µM) was 168 pg/mL and the IL-6 % reduction (3 µM) was 0.505%. The “IL-6 Mean” value (3 µM) was 76992 pg/mL, the TNF-α % reduction (3 µM) was -11% and the “TNF-α Mean” value (3 µM) was 1517 pg/mL. The CCl2 (3 µM) was 47549.1 pg/mL and 35229.8 pg/mL, the CXCL1 (3 µM) was 27.5 pg/mL and 27.6 pg/mL and the GM-CSF (3 µM) was 645.8 pg/mL and 715.5 pg/mL. The IL-1β (3 µM) was 151.548 pg/mL and 184.21 pg/mL, the IL-6 (3 µM) was 76816 pg/mL and 77168 pg/mL and the TNF-α (3 µM) was 1470.9 pg/mL and 1563.2 pg/mL. The CCl2, % reduction (10 µM) was -20%, the “CCl2, Mean” value (10 µM) was 42850 pg/mL and the GM-CSF % reduction (10 µM) was 25%. For the same molecule, the “GM-CSF Mean” value (10 µM) was 1034 pg/mL, the IL-1β % reduction (10 µM) was 16% and the “IL-1β Mean” value (10 µM) was 160 pg/mL. The IL-6 % reduction (10 µM) was 11%, the “IL-6 Mean” value (10 µM) was 69181 pg/mL and the TNF-α % reduction (10 µM) was -18%. The “TNF-α Mean” value (10 µM) was 1616 pg/mL, the CCl2 (10 µM) was 49014.8 pg/mL and 36684.7 pg/mL and the CXCL1 (10 µM) was 35.9 pg/mL and 33.8 pg/mL. The GM-CSF (10 µM) was 1124.4 pg/mL and 943.6 pg/mL, the IL-1β (10 µM) was 178.332 pg/mL and 142.562 pg/mL and the IL-6 (10 µM) was 73782 pg/mL and 64579 pg/mL. For the same molecule, the TNF-α (10 µM) was 1578.1 pg/mL and 1653.1 pg/mL, the CCl2, % reduction (30 µM) was -35% and the “CCl2, Mean” value (30 µM) was 47970 pg/mL. For the same molecule, the GM-CSF % reduction (30 µM) was -22%, the “GM-CSF Mean” value (30 µM) was 1662 pg/mL and the IL-1β % reduction (30 µM) was 6%. For the same molecule, the “IL-1β Mean” value (30 µM) was 179 pg/mL, the IL-6 % reduction (30 µM) was 25% and the “IL-6 Mean” value (30 µM) was 57940 pg/mL. The TNF-α % reduction (30 µM) was -31%, the “TNF-α Mean” value (30 µM) was 1789 pg/mL and the CCl2 (30 µM) was 51706.3 pg/mL and 44234.6 pg/mL. For the same molecule, the CXCL1 (30 µM) was 87.9 pg/mL and 85.2 pg/mL, the GM-CSF (30 µM) was 1753.9 pg/mL and 1570.0 pg/mL and the IL-1β (30 µM) was 181.679 pg/mL and 176.699 pg/mL. The IL-6 (30 µM) was 56206 pg/mL and 59673 pg/mL, the TNF-α (30 µM) was 1766.5 pg/mL and 1811.5 pg/mL and the CCl2, % reduction (100 µM) was 26%. The “CCl2, Mean” value (100 µM) was 27179 pg/mL, the GM-CSF % reduction (100 µM) was -29% and the “GM-CSF Mean” value (100 µM) was 1755 pg/mL. The IL-1β % reduction (100 µM) was -71%, the “IL-1β Mean” value (100 µM) was 325 pg/mL and the IL-6 % reduction (100 µM) was 46%. For the same molecule, the “IL-6 Mean” value (100 µM) was 42097 pg/mL, the TNF-α % reduction (100 µM) was -249% and the “TNF-α Mean” value (100 µM) was 4717 pg/mL. The CCl2 (100 µM) was 26262.5 pg/mL and 28095.5 pg/mL, the CXCL1 (100 µM) was 258.9 pg/mL and 215.6 pg/mL and the GM-CSF (100 µM) was 1833.3 pg/mL and 1676.9 pg/mL. The IL-1β (100 µM) was 330.455 pg/mL and 319.964 pg/mL, the IL-6 (100 µM) was 40652 pg/mL and 43542 pg/mL and the TNF-α (100 µM) was 4063.6 pg/mL and 5370.1 pg/mL. For the same molecule, the “CXCL2” value (compound 0.03 µM) was 31852.1 pg/mL and 31453.1 pg/mL, the “MMP9” value (compound 0.03 µM) was 895.68 pg/mL and 982.757 pg/mL and the “CXCL2” value (compound 0.1 µM) was 30865.4 pg/mL and 29898.5 pg/mL. The “MMP9” value (compound 0.1 µM) was 770.463 pg/mL and 867.766 pg/mL, the “CXCL2” value (compound 0.3 µM) was 32714.1 pg/mL and 32124.3 pg/mL and the “MMP9” value (compound 0.3 µM) was 798.08 pg/mL and 882.55 pg/mL. For the same molecule, the “CXCL2” value (compound 1 µM) was 35082.5 pg/mL and 36713.0 pg/mL, the “MMP9” value (compound 1 µM) was 879.359 pg/mL and 1004.8 pg/mL and the “CXCL2” value (compound 3 µM) was 37039.4 pg/mL and 32794.8 pg/mL. For the same molecule, the “MMP9” value (compound 3 µM) was 913.107 pg/mL and 886.534 pg/mL, the “CXCL2” value (compound 10 µM) was 36052.8 pg/mL and 33589.2 pg/mL and the “MMP9” value (compound 10 µM) was 894.885 pg/mL and 781.214 pg/mL. For the same molecule, the “CXCL2” value (compound 30 µM) was 37378.3 pg/mL and 38345.7 pg/mL, the “MMP9” value (compound 30 µM) was 446.696 pg/mL and 398.398 pg/mL and the “CXCL2” value (compound 100 µM) was 37906.2 pg/mL and 37582.2 pg/mL. For the same molecule, the “MMP9” value (compound 100 µM) was 104.703 pg/mL and 78.135 pg/mL.
